# Measurements from patent publication US20230248626A1, “Compositions Comprising (Bio)-Alkanediols” (Symrise AG, priority 0001, published 2023).
# Where two headings read alike, the source gives them in different places.
# How the values were obtained:
# Format in all cases: cell-based
# [1] = system: Anaerococcus octavius; test: MIC test (growth inhibition, 96 well plates, OD)
# Description: (§1) The MIC test is a test on growth inhibition. Estimation of Minimum Inhibitory Concentration (MIC) is executed in 96 well plates. Through the comparison of bacterial growth with positive and negative controls via optical density (OD), different concentrations of given test substances are evaluated.
# (§2) Bacteria are cultivated under adjusted conditions based on information of the German Collection of Microorganisms and Cell Cultures (DSMZ) and stored in 50% Glycerol prior to use. Afterwards, the following method was applied: Adding growth medium (according to microorganism) to each well of the microplate. Adding the test-substances in different concentrations, positive controls (water controls only with medium) and negative controls (benchmarks according to organism). Adding the microorganism in a concentration of 10^6 CFU/ml (CFU=colony forming units). Incubation of the microplates at appropriate conditions.
# (§3) According to resulting growth, substance concentrations are labelled either as inhibiting or not and MIC is defined as the lowest concentration where a complete growth inhibition is visible. Experiments at concentration limits (highest concentration labelled as growth and lowest concentration labelled as inhibiting) are performed at least twice.
# [2] = system: Aspergillus niger; test: MIC test (growth inhibition, 96 well plates, OD)
# Description: as §1, §2, §3
# [3] = system: Candida albicans; test: MIC test (growth inhibition, 96 well plates, OD); conditions: read-out: Minimum Inhibitory Concentration (MIC)
# Description: as §1, §2, §3
# [4] = system: Corynebacterium jeikeium; test: MIC test (growth inhibition, 96 well plates, OD); conditions: read-out: Minimum Inhibitory Concentration (MIC)
# Description: as §1, §2, §3
# [5] = system: Corynebacterium xerosis; test: MIC test (growth inhibition, 96 well plates, OD)
# Description: as §1, §2, §3
# [6] = system: Escherichia coli; test: MIC test (growth inhibition, 96 well plates, OD); conditions: read-out: Minimum Inhibitory Concentration (MIC)
# Description: as §1, §2, §3
# [7] = system: Propionibacterium acnes; test: MIC test (growth inhibition, 96 well plates, OD); conditions: Cutibacterium acnes; read-out: Minimum Inhibitory Concentration (MIC)
# Description: as §1, §2, §3
# [8] = system: Staphylococcus aureus; test: MIC test (growth inhibition, 96 well plates, OD); conditions: read-out: Minimum Inhibitory Concentration (MIC)
# Description: as §1, §2, §3
# [9] = system: Staphylococcus epidermidis; test: MIC test (growth inhibition, 96 well plates, OD)
# Description: as §1, §2, §3
# [10] = system: Staphylococcus hominis; test: MIC test (growth inhibition, 96 well plates, OD); conditions: read-out: Minimum Inhibitory Concentration (MIC)
# Description: as §1, §2, §3
# [11] = system: Aspergillus brasiliensis; test: MIC and Kull synergy index of 1,2-/2,3-alkanediol mixtures
# [12] = system: Aspergillus brasiliensis (AB); test: Preservation efficacy test (PET), European Pharmacopoeia 5.1.3
# Description: (§4) The preservation efficacy test (PET) was performed in accordance with European Pharmacopoeia § 5.1.3: The test is a reference European Pharmacopoeia method, that is to be used to evaluate the preservation system of a cosmetic or pharmaceutical preparation. The test consists of challenging the preparation under test, with prescribed inoculums of suitable microorganisms. The preservation porperties of the preparation are adequate if, in the conditions of the test, there is a significant fall or no increase, as appropriate, in the number of microorganisms in the inoculated preparations after the time prescribed.
# (§5) The test microorganisms which were used, are the following:
# (§6) Pseudomonas aeruginosa (PA) (bacterium); Staphylococcus aureus (SA) (bacterium); Escherichia coli (EC) (bacterium); Candida albicans (CA) (yeast); and Aspergillus brasiliensis (AB) (fungus).
# [13] = system: Candida albicans (CA); test: as above
# Description: as §4, §5, §6
# [14] = system: Escherichia coli (EC); test: as above
# Description: as §4, §5, §6
# [15] = system: Pseudomonas aeruginosa (PA); test: as above
# Description: as §4, §5, §6
# [16] = system: Staphylococcus aureus (SA); test: as above
# Description: as §4, §5, §6
# [17] = system: human sebaceous glands; test: Sebum production of micro-dissected, cultured human sebaceous glands (lipids/proteins after six days); design: sebum reduction: concentration or dose not given beside the values; conditions: for sebum reduction: compared to untreated control, six days, single donor (FIG. 4)
# Description: Additional tests were performed with human sebaceous glands in order to verify the modulatory activity of different 1,2-alkanediols and 2,3-alkanediols on sebum secretion. Several microbial species on the skin are lipid dependent and feed on the human sebum (e.g. Corynebacterium, Propionibacterium). Accordingly, sebum reduction can indirectly support the reduction of microorganisms on the skin and in this way also indirectly support e.g. dandruff or acne reduction.
# For these experiments sebaceous glands had been micro-dissected and cultured with medium. The medium without any supplement served as untreated control. Medium with 5 μM Capsaicin served as positive control. Additionally, culture medium was supplemented with different concentrations of alkanediols. After six days the sebaceous glands were collected and lipids and proteins quantified. The total lipid amount being representative of sebum production was obtained by normalizing the quantified lipids upon the quantified proteins (i.e. mg of lipids/mg of proteins).
structure (smiles),measurement,setting,value
"CCCCCCCC(O)CO (centres unmarked) [1,2-nonanediol]",MIC,[1],1000 µg/mL
same,MIC,[2],2500 µg/mL
same,MIC,[3],1000 µg/mL
same,MIC,[4],2500 µg/mL
same,MIC,[5],2500 µg/mL
same,MIC,[6],500 µg/mL
same,MIC,[7],1000 µg/mL
same,MIC,[8],1000 µg/mL
same,MIC,[9],1000 µg/mL
same,MIC,[10],1000 µg/mL
same,MIC,"[11]; single 1,2-alkanediol, read-out: MIC Component A",500 µg/mL
same,number of microorganisms after 2 days,[12]; 0.1% in o/w emulsion,"2,300,000"
same,number of microorganisms after 7 days,[12]; 0.1% in o/w emulsion,"1,300,000"
same,number of microorganisms after 14 days,[12]; 0.1% in o/w emulsion,"1,200,000"
same,number of microorganisms after 28 days,[12]; 0.1% in o/w emulsion,"900,000"
same,number of microorganisms after 2 days,[13]; 0.1% in o/w emulsion,"1,600,000"
same,number of microorganisms after 7 days,[13]; 0.1% in o/w emulsion,"120,000"
same,number of microorganisms after 14 days,[13]; 0.1% in o/w emulsion,890
same,number of microorganisms after 28 days,[13]; 0.1% in o/w emulsion,1
same,number of microorganisms after 2 days,[14]; 0.1% in o/w emulsion,"6,700"
same,number of microorganisms after 7 days,[14]; 0.1% in o/w emulsion,1
same,number of microorganisms after 14 days,[14]; 0.1% in o/w emulsion,1
same,number of microorganisms after 28 days,[14]; 0.1% in o/w emulsion,1
same,number of microorganisms after 2 days,[15]; 0.1% in o/w emulsion,1
same,number of microorganisms after 7 days,[15]; 0.1% in o/w emulsion,1
same,number of microorganisms after 14 days,[15]; 0.1% in o/w emulsion,1
same,number of microorganisms after 28 days,[15]; 0.1% in o/w emulsion,1
same,number of microorganisms after 2 days,[16]; 0.1% in o/w emulsion,"2,300"
same,number of microorganisms after 7 days,[16]; 0.1% in o/w emulsion,1
same,number of microorganisms after 14 days,[16]; 0.1% in o/w emulsion,1
same,number of microorganisms after 28 days,[16]; 0.1% in o/w emulsion,1
same,sebum reduction,[17],28%
same,concentration dependency of sebum reduction (in words),[17]; different donor (FIG. 5),experimentally confirmed
"CCCCCCC(O)C(C)O (centres unmarked) [2,3-nonanediol]",MIC,[3],2500 µg/mL
same,MIC,[4],2500 µg/mL
same,MIC,[6],1000 µg/mL
same,MIC,[7],2500 µg/mL
same,MIC,[8],2500 µg/mL
same,MIC,[10],5000 µg/mL
same,MIC,"[11]; single 2,3-alkanediol, read-out: MIC Component B",1000 µg/mL
same,number of microorganisms after 2 days,[12]; 0.1% in o/w emulsion,"1,200,000"
same,number of microorganisms after 7 days,[12]; 0.1% in o/w emulsion,"1,100,000"
same,number of microorganisms after 14 days,[12]; 0.1% in o/w emulsion,"890,000"
same,number of microorganisms after 28 days,[12]; 0.1% in o/w emulsion,"1,100,000"
same,number of microorganisms after 2 days,[12]; 0.1% in shampoo,"1,800,000"
same,number of microorganisms after 7 days,[12]; 0.1% in shampoo,"2,000,000"
same,number of microorganisms after 14 days,[12]; 0.1% in shampoo,"680,000"
same,number of microorganisms after 28 days,[12]; 0.1% in shampoo,"530,000"
same,number of microorganisms after 2 days,[12]; 0.4% in shampoo,"2,100,000"
same,number of microorganisms after 7 days,[12]; 0.4% in shampoo,"1,800,000"
same,number of microorganisms after 14 days,[12]; 0.4% in shampoo,"1,200,000"
same,number of microorganisms after 28 days,[12]; 0.4% in shampoo,"1,100,000"
same,number of microorganisms after 2 days,[13]; 0.1% in o/w emulsion,"2,000,000"
same,number of microorganisms after 7 days,[13]; 0.1% in o/w emulsion,"2,500,000"
same,number of microorganisms after 14 days,[13]; 0.1% in o/w emulsion,"1,900,000"
same,number of microorganisms after 28 days,[13]; 0.1% in o/w emulsion,"970,000"
same,number of microorganisms after 2 days,[13]; 0.1% in shampoo,"110,000"
same,number of microorganisms after 7 days,[13]; 0.1% in shampoo,"29,000"
same,number of microorganisms after 14 days,[13]; 0.1% in shampoo,870
same,number of microorganisms after 28 days,[13]; 0.1% in shampoo,1
same,number of microorganisms after 2 days,[13]; 0.4% in shampoo,"68,000"
same,number of microorganisms after 7 days,[13]; 0.4% in shampoo,"14,000"
same,number of microorganisms after 14 days,[13]; 0.4% in shampoo,690
same,number of microorganisms after 28 days,[13]; 0.4% in shampoo,1
same,number of microorganisms after 2 days,[14]; 0.1% in o/w emulsion,"810,000"
same,number of microorganisms after 7 days,[14]; 0.1% in o/w emulsion,"27,000"
same,number of microorganisms after 14 days,[14]; 0.1% in o/w emulsion,"1,100"
same,number of microorganisms after 28 days,[14]; 0.1% in o/w emulsion,1
same,number of microorganisms after 2 days,[14]; 0.1% in shampoo,"2,300,000"
same,number of microorganisms after 7 days,[14]; 0.1% in shampoo,"4,200,000"
same,number of microorganisms after 14 days,[14]; 0.1% in shampoo,"1,800,000"
same,number of microorganisms after 28 days,[14]; 0.1% in shampoo,"1,100,000"
same,number of microorganisms after 2 days,[14]; 0.4% in shampoo,"3,200,000"
same,number of microorganisms after 7 days,[14]; 0.4% in shampoo,"4,200,000"
same,number of microorganisms after 14 days,[14]; 0.4% in shampoo,"1,300,000"
same,number of microorganisms after 28 days,[14]; 0.4% in shampoo,"1,400,000"
same,number of microorganisms after 2 days,[15]; 0.1% in o/w emulsion,1
same,number of microorganisms after 7 days,[15]; 0.1% in o/w emulsion,1
same,number of microorganisms after 14 days,[15]; 0.1% in o/w emulsion,1
same,number of microorganisms after 28 days,[15]; 0.1% in o/w emulsion,1
same,number of microorganisms after 2 days,[15]; 0.1% in shampoo,"160,000"
same,number of microorganisms after 7 days,[15]; 0.1% in shampoo,"2,000,000"
same,number of microorganisms after 14 days,[15]; 0.1% in shampoo,"10,000,000"
same,number of microorganisms after 28 days,[15]; 0.1% in shampoo,"8,800,000"
same,number of microorganisms after 2 days,[15]; 0.4% in shampoo,"17,000"
same,number of microorganisms after 7 days,[15]; 0.4% in shampoo,1
same,number of microorganisms after 14 days,[15]; 0.4% in shampoo,1
same,number of microorganisms after 28 days,[15]; 0.4% in shampoo,1
same,number of microorganisms after 2 days,[16]; 0.1% in o/w emulsion,"2,200,000"
same,number of microorganisms after 7 days,[16]; 0.1% in o/w emulsion,"66,000"
same,number of microorganisms after 14 days,[16]; 0.1% in o/w emulsion,1
same,number of microorganisms after 28 days,[16]; 0.1% in o/w emulsion,1
same,number of microorganisms after 2 days,[16]; 0.1% in shampoo,"31,000"
same,number of microorganisms after 7 days,[16]; 0.1% in shampoo,200
same,number of microorganisms after 14 days,[16]; 0.1% in shampoo,1
same,number of microorganisms after 28 days,[16]; 0.1% in shampoo,1
same,number of microorganisms after 2 days,[16]; 0.4% in shampoo,"1,800"
same,number of microorganisms after 7 days,[16]; 0.4% in shampoo,1
same,number of microorganisms after 14 days,[16]; 0.4% in shampoo,1
same,number of microorganisms after 28 days,[16]; 0.4% in shampoo,1
same,sebum reduction,[17],41%
